Laboratory results reported in ChEMBL document CHEMBL4145634, “Discovery of Janus Kinase 2 (JAK2) and Histone Deacetylase (HDAC) Dual Inhibitors as a Novel Strategy for the Combinational Treatment of Leukemia and Invasive Fungal Infections” (J Med Chem, 2018).
Converted amounts (≈) assume the structure as drawn.

Assays:
Candida albicans [1] = experiment: microbe, parasite or virus in culture; type: functional; settings: Candida albicans, 0710922, 48 h
Description: Antifungal activity against FLC resistant Candida albicans 0710922 assessed as fluconazol MIC50 after 48 hrs by checkerboard microdilution method

HEL = experiment: Antiproliferative activity against human HEL cells after 48 hrs by CCK-8 assay; type: functional, cell-based
Candida albicans [2] = experiment: microbe, parasite or virus in culture; type: functional; settings: Candida albicans, 0304103, 48 h
Description: Antifungal activity against FLC resistant Candida albicans 0304103 after 48 hrs by checkerboard microdilution method

K562 = experiment: Antiproliferative activity against human K562 cells after 48 hrs by CCK-8 assay; type: functional, cell-based; settings: K562, 48 h
Candida albicans [3] = experiment: Antifungal activity against FLC resistant Candida albicans 100 after 48 hrs by checkerboard microdilution method; type: functional; settings: Candida albicans, 100, 48 h
Candida albicans [4] = experiment: Synergistic antifungal activity against FLC resistant Candida albicans 100 assessed as FIC index after 48 hrs by checkerboard microdilution method; type: functional
[5] = biological target: Tyrosine-protein kinase JAK2 (Homo sapiens, UniProt O60674); experiment: Inhibition of JAK2 (unknown origin) using FAM-labeled peptide as substrate preincubated for 10 mins followed by substrate addition and measured after 25 mins in presence of ATP
Chain of Tyrosine-protein kinase JAK2 (O60674 whole entry): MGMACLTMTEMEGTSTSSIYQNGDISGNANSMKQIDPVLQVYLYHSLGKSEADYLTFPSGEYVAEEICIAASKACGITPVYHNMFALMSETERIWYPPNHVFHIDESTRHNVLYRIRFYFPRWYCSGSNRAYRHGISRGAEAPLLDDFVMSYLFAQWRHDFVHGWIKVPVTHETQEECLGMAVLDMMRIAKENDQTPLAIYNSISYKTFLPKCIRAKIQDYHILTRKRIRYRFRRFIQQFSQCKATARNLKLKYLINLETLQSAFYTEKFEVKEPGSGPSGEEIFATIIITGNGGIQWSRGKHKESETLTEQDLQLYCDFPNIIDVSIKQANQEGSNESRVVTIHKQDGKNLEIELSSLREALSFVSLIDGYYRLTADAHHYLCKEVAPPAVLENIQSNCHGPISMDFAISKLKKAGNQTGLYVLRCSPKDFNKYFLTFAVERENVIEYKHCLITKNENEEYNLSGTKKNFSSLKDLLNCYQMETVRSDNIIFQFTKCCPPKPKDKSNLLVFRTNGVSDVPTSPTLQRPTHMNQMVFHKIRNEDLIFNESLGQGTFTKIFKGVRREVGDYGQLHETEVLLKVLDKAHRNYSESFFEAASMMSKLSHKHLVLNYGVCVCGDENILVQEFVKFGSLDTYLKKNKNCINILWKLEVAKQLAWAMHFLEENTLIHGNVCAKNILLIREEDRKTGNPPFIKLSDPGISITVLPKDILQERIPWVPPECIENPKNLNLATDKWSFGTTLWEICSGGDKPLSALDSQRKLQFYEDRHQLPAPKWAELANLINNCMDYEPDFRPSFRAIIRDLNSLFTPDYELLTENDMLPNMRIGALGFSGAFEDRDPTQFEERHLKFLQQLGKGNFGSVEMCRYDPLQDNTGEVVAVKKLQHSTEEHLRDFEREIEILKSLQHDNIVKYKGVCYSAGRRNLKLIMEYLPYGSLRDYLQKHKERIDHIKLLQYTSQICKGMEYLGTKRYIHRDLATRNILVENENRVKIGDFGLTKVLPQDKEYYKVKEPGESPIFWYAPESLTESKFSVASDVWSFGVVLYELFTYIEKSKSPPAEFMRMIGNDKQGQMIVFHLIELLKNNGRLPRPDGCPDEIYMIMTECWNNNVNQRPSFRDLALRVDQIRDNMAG

Candida albicans [6] = experiment: microbe, parasite or virus in culture; type: functional; settings: Candida albicans, 0710922, 48 h; remark: listed apart in the source
Description: Antifungal activity against FLC resistant Candida albicans 0710922 after 48 hrs in presence of fluconazol by checkerboard microdilution method

Histone deacetylase 1 = Histone deacetylase 1 (Homo sapiens, UniProt Q13547); experiment: Inhibition of full length human recombinant HDAC1 expressed in baculovirus expression system using (Ac-Leu-Gly-Lys(Ac)-AMC as substrate preincubated for 5 mins followed by substrate addition and measured after 30 mins by fluorescence assay
Chain of Histone deacetylase 1 (Q13547 whole entry): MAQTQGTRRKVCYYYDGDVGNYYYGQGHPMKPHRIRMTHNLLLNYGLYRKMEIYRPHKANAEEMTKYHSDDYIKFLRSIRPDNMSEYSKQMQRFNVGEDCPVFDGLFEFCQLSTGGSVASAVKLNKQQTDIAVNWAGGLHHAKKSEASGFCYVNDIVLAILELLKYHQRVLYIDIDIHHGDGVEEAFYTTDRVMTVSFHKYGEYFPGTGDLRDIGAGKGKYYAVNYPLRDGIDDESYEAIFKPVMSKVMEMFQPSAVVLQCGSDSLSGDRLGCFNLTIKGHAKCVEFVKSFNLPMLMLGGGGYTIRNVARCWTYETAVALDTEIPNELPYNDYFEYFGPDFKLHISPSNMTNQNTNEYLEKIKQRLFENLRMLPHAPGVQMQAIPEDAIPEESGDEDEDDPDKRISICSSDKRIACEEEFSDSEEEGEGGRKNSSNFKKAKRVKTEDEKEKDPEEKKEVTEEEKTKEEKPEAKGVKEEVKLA

Candida albicans [7] = experiment: Synergistic antifungal activity against FLC resistant Candida albicans 0710922 assessed as FIC index after 48 hrs by checkerboard microdilution method; type: functional
Candida albicans [8] = experiment: microbe, parasite or virus in culture; type: functional; settings: Candida albicans, 0304103, 48 h; remark: listed apart in the source
Description: Antifungal activity against FLC resistant Candida albicans 0304103 after 48 hrs in presence of fluconazol by checkerboard microdilution method

Candida albicans [9] = experiment: Antifungal activity against FLC resistant Candida albicans 100 after 48 hrs in presence of fluconazol by checkerboard microdilution method; type: functional; settings: Candida albicans, 100, 48 h
Candida albicans [10] = experiment: microbe, parasite or virus in culture; type: functional; settings: Candida albicans, 100, 48 h
Description: Antifungal activity against FLC resistant Candida albicans 100 assessed as fluconazol MIC50 after 48 hrs by checkerboard microdilution method

Candida albicans [11] = experiment: Synergistic antifungal activity against FLC resistant Candida albicans 0304103 assessed as FIC index after 48 hrs by checkerboard microdilution method; type: functional
HL-60 = experiment: Antiproliferative activity against human HL60 cells after 48 hrs by CCK-8 assay; type: functional, cell-based; settings: HL-60, 48 h
Candida albicans [12] = experiment: microbe, parasite or virus in culture; type: functional; settings: Candida albicans, 0710922, 48 h; remark: listed apart in the source
Description: Antifungal activity against FLC resistant Candida albicans 0710922 after 48 hrs by checkerboard microdilution method

Candida albicans [13] = experiment: microbe, parasite or virus in culture; type: functional; settings: Candida albicans, 0304103, 48 h; remark: listed apart in the source
Description: Antifungal activity against FLC resistant Candida albicans 0304103 assessed as fluconazol MIC50 after 48 hrs by checkerboard microdilution method

| SMILES | MIC50 (Candida albicans [1]) [µg/mL] | IC50 (HEL) [µM] | MIC50 (Candida albicans [2]) [µg/mL] | IC50 (K562) [µM] | MIC50 (Candida albicans [3]) [µg/mL] | fractional inhibitory concentration index (FICI) (Candida albicans [4]) | IC50 [5] [µM] | MIC50 (Candida albicans [6]) [µg/mL] | IC50 (Histone deacetylase 1) [µM] | fractional inhibitory concentration index (FICI) (Candida albicans [7]) | MIC50 (Candida albicans [8]) [µg/mL] | MIC50 (Candida albicans [9]) [µg/mL] | MIC50 (Candida albicans [10]) [µg/mL] | fractional inhibitory concentration index (FICI) (Candida albicans [11]) | IC50 (HL-60) [µM] | MIC50 (Candida albicans [12]) [µg/mL] | MIC50 (Candida albicans [13]) [µg/mL] |
| --- | --- | --- | --- | --- | --- | --- | --- | --- | --- | --- | --- | --- | --- | --- | --- | --- | --- |
| CS(=O)(=O)Nc1ccc(-c2ccnc(Nc3ccc(N4CCC(C(=O)NCCCCCC(=O)NO)CC4)cc3)n2)cc1 | 64 (≈ 107 µM) | 17 | 32 (≈ 53.7 µM) | 10 | 32 | 0.5 | 0.003 | 64 (≈ 107 µM) | 0.35 | 2 | 16 (≈ 26.9 µM) | 16 | 0.25 (≈ 0.42 µM) | 0.5 | 37 | > 64 | 0.5 (≈ 0.839 µM) |
| N#CCNC(=O)c1ccc(-c2ccnc(Nc3ccc(N4CCC(C(=O)Nc5ccc(/C=C/C(=O)NO)cc5)CC4)cc3)n2)cc1 | 2 (≈ 3.24 µM) | > 50 | > 64 | > 50 | > 64 | 1.02 | 0.015 | 16 (≈ 25.9 µM) | 5.1 | 0.31 | 4 (≈ 6.49 µM) | 64 | 1 (≈ 1.62 µM) | 0.078 | > 50 | > 64 | 1 (≈ 1.62 µM) |
| CS(=O)(=O)Nc1ccc(-c2ccnc(Nc3ccc(N4CCC(C(=O)NO)CC4)cc3)n2)cc1 | 0.25 (≈ 0.518 µM) | > 50 | > 64 | 18 | > 64 | 0.14 | 0.001 | 32 (≈ 66.3 µM) | 2.9 | 0.51 | 4 (≈ 8.29 µM) | 8 | 1 (≈ 2.07 µM) | 0.07 | > 50 | > 64 | 0.5 (≈ 1.04 µM) |
| N#CCNC(=O)c1ccc(-c2ccnc(Nc3ccc(N4CCC(C(=O)NO)CC4)cc3)n2)cc1 | 1 (≈ 2.12 µM) | > 50 | > 64 | > 50 | > 64 | 0.039 | 0.004 | 64 (≈ 136 µM) | 2.7 | 1.02 | 8 (≈ 17 µM) | 2 | 0.5 (≈ 1.06 µM) | 0.13 | > 50 | > 64 | 0.25 (≈ 0.53 µM) |
| CS(=O)(=O)Nc1ccc(-c2ccnc(Nc3ccc(N4CCC(C(=O)NCCCCCCC(=O)NO)CC4)cc3)n2)cc1 | 0.25 (≈ 0.41 µM) | 3.9 | > 64 | 8.9 | > 64 | 0.13 | 0.002 | 32 (≈ 52.5 µM) | 0.25 | 0.5 | 8 (≈ 13.1 µM) | 8 | 0.25 (≈ 0.41 µM) | 0.13 | 12 | > 64 | 0.5 (≈ 0.82 µM) |
| N#CCNC(=O)c1ccc(-c2ccnc(Nc3ccc(N4CCC(C(=O)Nc5ccc(C(=O)NO)cc5)CC4)cc3)n2)cc1 | > 64 | > 50 | > 64 | > 50 | > 64 | 1.03 | 0.016 | > 64 | 24 | >2 | 64 (≈ 108 µM) | 64 | 2 (≈ 3.39 µM) | 1.01 | > 50 | > 64 | 0.5 (≈ 0.847 µM) |
| CS(=O)(=O)Nc1ccc(-c2ccnc(Nc3ccc(N4CCC(C(=O)Nc5ccccc5N)CC4)cc3)n2)cc1 | > 64 | 3.2 | > 64 | 9.5 | > 64 | 2 | 0.002 | > 64 | 2.1 | >2 | > 64 | 64 | 64 (≈ 115 µM) | >2 | 16 | > 64 | > 64 |
